Values of other authors, collected in patent publication US4280953A, “Glycosylated analogs of somatostatin” (The Salk Institute for Biological Studies, priority 1979, dated 1981).
Non-standard residues stand in square brackets, D forms with d.

Test system: secretion of insulin, glucogon pancreatic polypeptide and gastrin
Settings: human subjects, subcutaneous administration

## H-CFF[dW]KTFC-OH (cysteine pairing not given here)
  inhibitory activity on the secretion of insulin, glucogon pancreatic polypeptide and gastrin: prolonged inhibitory activity
